Measurements from US20240368135A1 (VERTEX PHARMACEUTICALS INCORPORATED, priority 2021, published 2024).

Target: human NaV 1.8 (Homo sapiens, UniProt Q9Y5Y9)
Assay: E-VIPR assay detecting and measuring NaV inhibition properties
Assay type: cell-based
Conditions: HEK cells expressing truncated human NaV 1.8; in the presence of human serum (compound numbers followed by *); read-out: IC50 in the E-VIPR Assay, performed in the presence of human serum
Procedure, shortened: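 Membrane potential was followed by coumarin/oxonol FRET during electrical field stimulation of matrigel-seeded HEK cells carrying truncated human NaV1.8 plus KIR2.1. Dosing used 11 points, 3-fold steps, top 300 nM final, 0.625% DMSO, with or without 25% human serum.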

human NaV 1.8, sequence (Q9Y5Y9 126-399 limits assumed): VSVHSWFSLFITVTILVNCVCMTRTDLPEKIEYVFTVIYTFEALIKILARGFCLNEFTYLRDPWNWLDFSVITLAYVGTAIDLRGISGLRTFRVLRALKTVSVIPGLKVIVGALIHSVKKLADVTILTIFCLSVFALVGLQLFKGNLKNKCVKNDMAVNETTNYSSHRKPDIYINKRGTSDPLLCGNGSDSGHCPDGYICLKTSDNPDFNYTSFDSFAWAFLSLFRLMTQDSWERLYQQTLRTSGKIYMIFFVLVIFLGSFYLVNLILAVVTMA
human NaV 1.8, sequence (Q9Y5Y9 660-890 limits assumed): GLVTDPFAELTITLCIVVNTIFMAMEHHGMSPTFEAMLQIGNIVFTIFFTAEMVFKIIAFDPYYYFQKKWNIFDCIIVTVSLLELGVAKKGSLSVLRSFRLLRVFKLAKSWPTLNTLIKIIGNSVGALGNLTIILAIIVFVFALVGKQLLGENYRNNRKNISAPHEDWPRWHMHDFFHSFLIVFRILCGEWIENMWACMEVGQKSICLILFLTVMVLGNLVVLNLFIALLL
human NaV 1.8, sequence (Q9Y5Y9 1148-1722 limits assumed): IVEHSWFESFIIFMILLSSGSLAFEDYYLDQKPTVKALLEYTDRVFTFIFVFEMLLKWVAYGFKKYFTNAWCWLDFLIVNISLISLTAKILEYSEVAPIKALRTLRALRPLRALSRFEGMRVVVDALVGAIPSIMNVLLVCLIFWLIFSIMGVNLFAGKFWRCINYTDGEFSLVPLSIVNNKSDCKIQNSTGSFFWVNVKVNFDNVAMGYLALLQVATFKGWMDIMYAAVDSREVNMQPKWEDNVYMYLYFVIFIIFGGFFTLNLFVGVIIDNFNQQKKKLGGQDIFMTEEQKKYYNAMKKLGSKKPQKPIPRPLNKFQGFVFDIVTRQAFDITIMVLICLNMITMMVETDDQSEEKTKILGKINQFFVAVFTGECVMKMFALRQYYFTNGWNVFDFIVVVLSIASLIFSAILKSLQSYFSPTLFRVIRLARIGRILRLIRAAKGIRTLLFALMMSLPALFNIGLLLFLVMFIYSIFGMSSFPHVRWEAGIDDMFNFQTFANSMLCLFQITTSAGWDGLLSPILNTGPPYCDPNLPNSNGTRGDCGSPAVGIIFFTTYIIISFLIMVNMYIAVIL

| SMILES | IC50 |
| --- | --- |
| COc1c([C@H]2C[C@@](C)(C(F)(F)F)O[C@@H]2C(=O)Nc2cn(S(C)(=O)=O)nc2C)ccc(F)c1F (stereo in doubt) [Compound 683, rel-(2S,3R,5S)-3-(3,4-difluoro-2-methoxyphenyl)-5-methyl-N-(3-methyl-1-(methylsulfonyl)-1H-pyrazol-4-yl)-5-(trifluoromethyl)tetrahydrofuran-2-carboxamide] | ≥ 1000 nM |
| COc1c([C@H]2C[C@@](C)(C(F)(F)F)O[C@@H]2C(=O)Nc2ccnc([C@@H](O)[C@H](C)O)c2)ccc(F)c1F (stereo in doubt) [Compound 698, rel-(2S,3R,5S)-3-(3,4-difluoro-2-methoxyphenyl)-N-(2-((1R,2S)-1,2-dihydroxypropyl)pyridin-4-yl)-5-methyl-5-(trifluoromethyl)tetrahydrofuran-2-carboxamide] | ≥ 1000 nM |
| COc1c([C@@H]2C[C@](C)(C(F)(F)F)O[C@H]2C(=O)Nc2ccnc([C@H](O)[C@@H](C)O)c2)ccc(F)c1F (stereo in doubt) [Compound 699, rel-(2R,3S,5R)-3-(3,4-difluoro-2-methoxyphenyl)-N-(2-((1S,2R)-1,2-dihydroxypropyl)pyridin-4-yl)-5-methyl-5-(trifluoromethyl)tetrahydrofuran-2-carboxamide] | 10 to 100 nM |
| COc1cc(F)ccc1[C@H]1C[C@@](C)(C(F)(F)F)O[C@@H]1C(=O)Nc1ccnc(S(C)(=O)=O)c1 (stereo in doubt) [Compound 713, rel-(2S,3R,5S)-3-(4-fluoro-2-methoxyphenyl)-5-methyl-N-(2-(methylsulfonyl)pyridin-4-yl)-5-(trifluoromethyl)tetrahydrofuran-2-carboxamide] | ≥ 1000 nM |

Same assay, conditions: HEK cells expressing truncated human NaV 1.8; no human serum; read-out: IC50 in the E-VIPR Assay

| SMILES | IC50 |
| --- | --- |
| C[C@@H]1[C@H](c2ccc(F)c(F)c2)[C@@H](C(=O)Nc2ccnc(S(C)(=O)=O)c2)O[C@]1(C)C(F)(F)F (stereo in doubt) [Compound 154, rel-(2S,3R,4R,5S)-3-(3,4-difluorophenyl)-4,5-dimethyl-N-(2-(methylsulfonyl)pyridin-4-yl)-5-(trifluoromethyl)tetrahydrofuran-2-carboxamide] | ≥ 1000 nM |
| C[C@H]1[C@@H](c2ccc(F)c(F)c2)[C@H](C(=O)Nc2ccnc(S(C)(=O)=O)c2)O[C@@]1(C)C(F)(F)F (stereo in doubt) [Compound 155, rel-(2R,3S,4S,5R)-3-(3,4-difluorophenyl)-4,5-dimethyl-N-(2-(methylsulfonyl)pyridin-4-yl)-5-(trifluoromethyl)tetrahydrofuran-2-carboxamide] | 10 to 100 nM |
| COc1c([C@H]2[C@H](C(=O)Nc3ccc(C(N)=O)nc3)O[C@@](C)(C(F)(F)F)[C@H]2C)cccc1C(F)(F)F (stereo in doubt) [Compound 156, rel-5-((2R,3S,4S,5R)-3-(2-methoxy-3-(trifluoromethyl)phenyl)-4,5-dimethyl-5-(trifluoromethyl)tetrahydrofuran-2-carboxamido)picolinamide] | < 10 nM |
| COc1c([C@@H]2[C@@H](C(=O)Nc3ccc(C(N)=O)nc3)O[C@](C)(C(F)(F)F)[C@@H]2C)cccc1C(F)(F)F (stereo in doubt) [Compound 157, rel-5-((2S,3R,4R,5S)-3-(2-methoxy-3-(trifluoromethyl)phenyl)-4,5-dimethyl-5-(trifluoromethyl)tetrahydrofuran-2-carboxamido)picolinamide] | ≥ 1000 nM |
| COc1c([C@@H]2[C@@H](C(=O)Nc3ccc4cnnn4c3)O[C@](C)(C(F)(F)F)[C@@H]2C)ccc(F)c1C(F)F (stereo in doubt) [Compound 160, rel-(2S,3R,4R,5S)-N-([1,2,3]triazolo[1,5-a]pyridin-6-yl)-3-(3-(difluoromethyl)-4-fluoro-2-methoxyphenyl)-4,5-dimethyl-5-(trifluoromethyl)tetrahydrofuran-2-carboxamide] | 100 to 1000 nM |
| COc1c([C@H]2[C@H](C(=O)Nc3ccc4cnnn4c3)O[C@@](C)(C(F)(F)F)[C@H]2C)ccc(F)c1C(F)F (stereo in doubt) [Compound 161, rel-(2R,3S,4S,5R)—N-([1,2,3]triazolo[1,5-a]pyridin-6-yl)-3-(3-(difluoromethyl)-4-fluoro-2-methoxyphenyl)-4,5-dimethyl-5-(trifluoromethyl)tetrahydrofuran-2-carboxamide] | < 10 nM |
| COc1c([C@H]2[C@H](C(=O)Nc3ccc(C(N)=O)nc3)O[C@@](C)(C(F)(F)F)[C@H]2C)ccc(F)c1C(F)F (stereo in doubt) [Compound 168, rel-5-((2R,3S,4S,5R)-3-(3-(difluoromethyl)-4-fluoro-2-methoxyphenyl)-4,5-dimethyl-5-(trifluoromethyl)tetrahydrofuran-2-carboxamido)picolinamide] | < 10 nM |
| COc1c([C@@H]2[C@@H](C(=O)Nc3ccc(C(N)=O)nc3)O[C@](C)(C(F)(F)F)[C@@H]2C)ccc(F)c1C(F)F (stereo in doubt) [Compound 169, rel-5-((2S,3R,4R,5S)-3-(3-(difluoromethyl)-4-fluoro-2-methoxyphenyl)-4,5-dimethyl-5-(trifluoromethyl)tetrahydrofuran-2-carboxamido)picolinamide] | ≥ 1000 nM |
| CNC(=O)c1ccc(NC(=O)[C@@H]2O[C@@](C)(C(F)(F)F)[C@@H](C)[C@H]2c2ccc(F)c(C(F)F)c2OC)cn1 (stereo in doubt) [Compound 170, rel-5-((2R,3S,4S,5R)-3-(3-(difluoromethyl)-4-fluoro-2-methoxyphenyl)-4,5-dimethyl-5-(trifluoromethyl)tetrahydrofuran-2-carboxamido)-N-methylpicolinamide] | < 10 nM |
| CNC(=O)c1ccc(NC(=O)[C@H]2O[C@](C)(C(F)(F)F)[C@H](C)[C@@H]2c2ccc(F)c(C(F)F)c2OC)cn1 (stereo in doubt) [Compound 171, rel-5-((2S,3R,4R,5S)-3-(3-(difluoromethyl)-4-fluoro-2-methoxyphenyl)-4,5-dimethyl-5-(trifluoromethyl)tetrahydrofuran-2-carboxamido)-N-methylpicolinamide] | 10 to 100 nM |
| COc1c([C@@H]2[C@@H](C(=O)Nc3cnc(C(N)=O)nc3)O[C@](C)(C(F)(F)F)[C@@H]2C)ccc(F)c1C(F)F (stereo in doubt) [Compound 172, rel-5((2S,3R,4R,5S)-3-(3-(difluoromethyl)-4-fluoro-2-methoxy-phenyl)-4,5-dimethyl-5-(trifluoromethyl)tetrahydrofuran-2-carboxamido)pyrimidine-2-carboxamide] | ≥ 1000 nM |
| COc1c([C@H]2[C@H](C(=O)Nc3cnc(C(N)=O)nc3)O[C@@](C)(C(F)(F)F)[C@H]2C)ccc(F)c1C(F)F (stereo in doubt) [Compound 173, rel-5-((2R,3S,4S,5R)-3-(3-(difluoromethyl)-4-fluoro-2-methoxyphenyl)-4,5-dimethyl-5-(trifluoromethyl)tetrahydrofuran-2-carboxamido)pyrimidine-2-carboxamide] | < 10 nM |
| COCc1c(F)ccc([C@@H]2[C@@H](C(=O)Nc3ccc(C(N)=O)nc3)O[C@](C)(C(F)(F)F)[C@@H]2C)c1OC (stereo in doubt) [Compound 178, rel-5-((2S,3R,4R,5S)-3-(4-fluoro-2-methoxy-3-(methoxymethyl)phenyl)-4,5-dimethyl-5-(trifluoromethyl)tetrahydrofuran-2-carboxamido)picolinamide] | ≥ 1000 nM |
| COCc1c(F)ccc([C@H]2[C@H](C(=O)Nc3ccc(C(N)=O)nc3)O[C@@](C)(C(F)(F)F)[C@H]2C)c1OC (stereo in doubt) [Compound 179, rel-5-((2R,3S,4S,5R)-3-(4-fluoro-2-methoxy-3-(methoxymethyl)phenyl)-4,5-dimethyl-5-(trifluoromethyl)tetrahydrofuran-2-carboxamido)picolinamide] | 10 to 100 nM |
| COc1c([C@@H]2[C@@H](C(=O)Nc3ccnc(S(=O)(=O)N(C)C)c3)O[C@](C)(C(F)(F)F)[C@@H]2C)ccc(F)c1F (stereo in doubt) [Compound 448, rel-(2S,3R,4R,5S)-3-(3,4-difluoro-2-methoxyphenyl)-N-(2-(N,N-dimethylsulfamoyl)pyridin-4-yl)-4,5-dimethyl-5-(trifluoromethyl)tetrahydrofuran-2-carboxamide] | ≥ 1000 nM |
| COc1c([C@H]2[C@H](C(=O)Nc3ccnc(S(=O)(=O)N(C)C)c3)O[C@@](C)(C(F)(F)F)[C@H]2C)ccc(F)c1F (stereo in doubt) [Compound 449, rel-(2R,3S,4S,5R)-3-(3,4-difluoro-2-methoxyphenyl)-N-(2-(N,N-dimethylsulfamoyl)pyridin-4-yl)-4,5-dimethyl-5-(trifluoromethyl)tetrahydrofuran-2-carboxamide] | < 10 nM |
| COc1c([C@@H]2[C@@H](C(=O)Nc3cncc(S(=O)(=O)N(C)C)c3)O[C@](C)(C(F)(F)F)[C@@H]2C)ccc(F)c1F (stereo in doubt) [Compound 452, rel-(2S,3R,4R,5S)-3-(3,4-difluoro-2-methoxyphenyl)-N-(5-(N,N-dimethylsulfamoyl)pyridin-3-yl)-4,5-dimethyl-5-(trifluoromethyl)tetrahydrofuran-2-carboxamide] | ≥ 1000 nM |
| COc1c([C@H]2[C@H](C(=O)Nc3cncc(S(=O)(=O)N(C)C)c3)O[C@@](C)(C(F)(F)F)[C@H]2C)ccc(F)c1F (stereo in doubt) [Compound 453, rel-(2R,3S,4S,5R)-3-(3,4-difluoro-2-methoxyphenyl)-N-(5-(N,N-dimethylsulfamoyl)pyridin-3-yl)-4,5-dimethyl-5-(trifluoromethyl)tetrahydrofuran-2-carboxamide] | 10 to 100 nM |
| COc1c([C@@H]2C[C@](C)(C(F)(F)F)O[C@H]2C(=O)Nc2cn(S(C)(=O)=O)nc2C)ccc(F)c1F (stereo in doubt) [Compound 684, rel-(2R,3S,5R)-3-(3,4-difluoro-2-methoxyphenyl)-5-methyl-N-(3-methyl-1-(methylsulfonyl)-1H-pyrazol-4-yl)-5-(trifluoromethyl)tetrahydrofuran-2-carboxamide] | < 10 nM |
